According to PubChem BioAssay (NCI):
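Cells were grown in 96-well plates and exposed to each compound for 48 hours at five concentrations; endpoints were interpolated linearly between bracketing concentrations, or set to the highest concentration if not reached. Abbreviation: GI50, concentration required for 50% inhibition of growth. TGI: total growth inhibition.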

Experiments:
Test in all cases: inhibition of tumour cell growth, NCI panel, 48 h
SNB-19 CNS = system: SNB-19 CNS
HCT-116 colon = system: HCT-116 colon
BT-549 breast = system: BT-549 breast
NCI-H23 lung = system: NCI-H23 lung
NCI-H522 lung = system: NCI-H522 lung
EKVX NSCLC = system: EKVX NSCLC
UACC-62 melanoma = system: UACC-62 melanoma
SK-MEL-2 melanoma = system: SK-MEL-2 melanoma
SK-OV-3 ovarian = system: SK-OV-3 ovarian
U251 CNS = system: U251 CNS
OVCAR-8 ovarian = system: OVCAR-8 ovarian
OVCAR-4 ovarian = system: OVCAR-4 ovarian
SF-539 CNS = system: SF-539 CNS
786-0 renal = system: 786-0 renal

Structure (SMILES) | TGI (SNB-19 CNS) | TGI (HCT-116 colon) | TGI (BT-549 breast) | TGI (NCI-H23 lung) | TGI (NCI-H522 lung) | TGI (EKVX NSCLC) | TGI (UACC-62 melanoma) | TGI (SK-MEL-2 melanoma) | TGI (SK-OV-3 ovarian) | TGI (U251 CNS) | TGI (OVCAR-8 ovarian) | TGI (OVCAR-4 ovarian) | TGI (SF-539 CNS) | TGI (786-0 renal) | GI50 (NCI-H23 lung) | GI50 (NCI-H522 lung)
CC1Cc2cc(O)ccc2C2[C@@H]1C1CC[C@H](O)[C@@]1(C)C[C@@H]2O[N+](=O)[O-] (stereo partly drawn) | 98.7 µM | 31.1 µM | 48.9 µM | 67.8 µM | 61.3 µM | > 100 µM | 44 µM | 55.3 µM | > 100 µM | 23 µM | 74 µM | > 100 µM | 18.9 µM | 65.3 µM | – | –
CC(=O)O[C@H]1[C@@H](N2CCN(C)CC2)C[C@H]2[C@@H]3CC=C4C[C@@H](N5CCCC5)CC[C@]4(C)[C@H]3CC[C@@]21C | > 100 µM | > 100 µM | > 100 µM | > 100 µM | > 100 µM | > 100 µM | > 100 µM | > 100 µM | > 100 µM | > 100 µM | > 100 µM | > 100 µM | 29.3 µM | > 100 µM | – | –
O=C(O)c1cc(Sc2ccc([N+](=O)[O-])c(C(=O)O)c2)ccc1[N+](=O)[O-] | > 100 µM | > 100 µM | > 100 µM | > 100 µM | > 100 µM | > 100 µM | > 100 µM | > 100 µM | > 100 µM | > 100 µM | > 100 µM | > 100 µM | > 100 µM | > 100 µM | > 100 µM | > 100 µM
CC1(C)O[C@@H]2[C@@H]3OC(=O)C[C@@H]3[C@@H](COCc3ccccc3)[C@@H]2O1 | > 100 µM | > 100 µM | > 100 µM | > 100 µM | > 100 µM | > 100 µM | > 100 µM | > 100 µM | > 100 µM | > 100 µM | > 100 µM | > 100 µM | > 100 µM | > 100 µM | – | –
